PubChem BioAssay AID328 (DTP/NCI, 2004)
Where “and” joins values, the source holds several entries; their conditions need not be identical. Identical values can stand only once. Inconclusive results and toxic doses are left out. The calls were made as follows: active = survival T/C of 150% or more; inactive = T/C below 125% in these data.

System: BDF1 mice, P388 leukemia ip, median survival T/C
Assay: NCI In Vivo Anticancer Drug Screen. Data for tumor model P388 Leukemia (intraperitoneal) in B6D2F1 (BDF1) mice
Conditions: endpoint: median survival time, higher = longer survival
Summary of the method: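 Steps: implant the tumour, treat one group with compound and another with vehicle, record survival, then divide treated by control.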

[1] = dose: 12.5 mg/kg/injection, schedule: Q01DX009 (ip), vehicle: water
[2] = dose: 50.0 mg/kg/injection, schedule: Q01DX009 (ip), vehicle: water
[3] = dose: 50.0 mg/kg/injection, schedule: Q04DX003 (ip), vehicle: water
[4] = dose: 100.0 mg/kg/injection, schedule: Q01DX009 (ip), vehicle: water
[5] = dose: 100.0 mg/kg/injection, schedule: Q04DX003 (ip), vehicle: water
[6] = dose: 200.0 mg/kg/injection, schedule: Q01DX009 (ip), vehicle: water
[7] = dose: 200.0 mg/kg/injection, schedule: Q04DX003 (ip), vehicle: water
[8] = dose: 400.0 mg/kg/injection, schedule: Q04DX003 (ip), vehicle: water
[9] = dose: 100.0 mg/kg/injection, schedule: Q04DX002 (ip), vehicle: saline with Tween-80
[10] = dose: 200.0 mg/kg/injection, schedule: Q04DX002 (ip), vehicle: saline with Tween-80

Measured: T/C

O=C(CBr)c1ccc(I)cc1
inactive: dose: 13.0 mg/kg/injection, schedule: Q01DX010 (ip), vehicle: saline 109 % of control | dose: 26.0 mg/kg/injection, schedule: Q01DX010 (ip), vehicle: saline 109 % of control | dose: 43.0 mg/kg/injection, schedule: Q01DX010 (ip), vehicle: saline 90 % of control

Cc1c[nH]c2nccnc12
inactive: dose: 1.56 mg/kg/injection, schedule: Q01DX009 (ip), vehicle: water 103 % of control | dose: 3.12 mg/kg/injection, schedule: Q01DX009 (ip), vehicle: water 94 % of control and 105 % of control | dose: 6.25 mg/kg/injection, schedule: Q01DX009 (ip), vehicle: water 93 % of control and 94 % of control and 101 % of control | [1] 91 % of control and 106 % of control | [2] 90 % of control and 99 % of control | [3] 94 % of control | [4] 89 % of control and 106 % of control | [5] 94 % of control | [6] 108 % of control | [7] 103 % of control | dose: 400.0 mg/kg/injection, schedule: Q01DX009 (ip), vehicle: water 99 % of control | [8] 92 % of control

CN(C)c1ccc(/C=C/c2ccnc3c(N)cccc23)cc1
inactive: [9] 110 % of control | [10] 113 % of control | dose: 400.0 mg/kg/injection, schedule: Q04DX002 (ip), vehicle: saline with Tween-80 116 % of control

CC(=O)CC(=O)c1ccccc1
inactive: dose: 100.0 mg/kg/injection, schedule: Q01DX001 (ip), vehicle: Klucel (hydroxypropylcellulose) (HPC) 112 % of control | dose: 100.0 mg/kg/injection, schedule: Q04DX003 (ip), vehicle: Klucel (hydroxypropylcellulose) (HPC) 108 % of control | dose: 200.0 mg/kg/injection, schedule: Q01DX001 (ip), vehicle: Klucel (hydroxypropylcellulose) (HPC) 95 % of control | dose: 200.0 mg/kg/injection, schedule: Q04DX003 (ip), vehicle: Klucel (hydroxypropylcellulose) (HPC) 108 % of control | dose: 400.0 mg/kg/injection, schedule: Q01DX001 (ip), vehicle: Klucel (hydroxypropylcellulose) (HPC) 91 % of control | dose: 400.0 mg/kg/injection, schedule: Q04DX003 (ip), vehicle: Klucel (hydroxypropylcellulose) (HPC) 112 % of control

CCOC(=O)CN1C=C(C(=O)c2cc3ccccc3[nH]2)CCC1
inactive: dose: 0.06 mg/kg/injection, schedule: Q01DX009 (ip), vehicle: saline 105 % of control | dose: 0.12 mg/kg/injection, schedule: Q01DX009 (ip), vehicle: saline 105 % of control | dose: 0.25 mg/kg/injection, schedule: Q01DX009 (ip), vehicle: saline 105 % of control | dose: 0.5 mg/kg/injection, schedule: Q01DX009 (ip), vehicle: saline 100 % of control | dose: 1.0 mg/kg/injection, schedule: Q01DX009 (ip), vehicle: saline 105 % of control | dose: 2.0 mg/kg/injection, schedule: Q01DX009 (ip), vehicle: saline 110 % of control | dose: 4.0 mg/kg/injection, schedule: Q01DX009 (ip), vehicle: saline 99 % of control | dose: 8.0 mg/kg/injection, schedule: Q01DX009 (ip), vehicle: saline 98 % of control | dose: 16.0 mg/kg/injection, schedule: Q01DX009 (ip), vehicle: saline 93 % of control | dose: 32.0 mg/kg/injection, schedule: Q01DX009 (ip), vehicle: saline 98 % of control

O=C1CC(c2c[nH]c3nccnc23)NN1 (stereo not drawn)
inactive: [1] 100 % of control | dose: 25.0 mg/kg/injection, schedule: Q01DX009 (ip), vehicle: water 101 % of control | dose: 25.0 mg/kg/injection, schedule: Q04DX003 (ip), vehicle: water 104 % of control | [2] 110 % of control | [3] 100 % of control | [4] 100 % of control | [5] 95 % of control | [6] 103 % of control | [7] 104 % of control | dose: 300.0 mg/kg/injection, schedule: Q01DX009 (ip), vehicle: water 103 % of control | [8] 100 % of control

CC(C)(C)CSc1ccccc1SCC(C)(C)C
inactive: dose: 50.0 mg/kg/injection, schedule: Q04DX002 (ip), vehicle: saline with Tween-80 107 % of control | [9] 98 % of control | [10] 93 % of control
